Target: PI3K-alpha (Homo sapiens (Human), UniProt P42336)
Experiment: HTRF PI3K biochemical assay, alpha isoform
Details: ratio PI3K-alpha IC50 value/PI3K-delta IC50 value

Sequence of PI3K-alpha (P42336 whole entry, looked up, canonical isoform): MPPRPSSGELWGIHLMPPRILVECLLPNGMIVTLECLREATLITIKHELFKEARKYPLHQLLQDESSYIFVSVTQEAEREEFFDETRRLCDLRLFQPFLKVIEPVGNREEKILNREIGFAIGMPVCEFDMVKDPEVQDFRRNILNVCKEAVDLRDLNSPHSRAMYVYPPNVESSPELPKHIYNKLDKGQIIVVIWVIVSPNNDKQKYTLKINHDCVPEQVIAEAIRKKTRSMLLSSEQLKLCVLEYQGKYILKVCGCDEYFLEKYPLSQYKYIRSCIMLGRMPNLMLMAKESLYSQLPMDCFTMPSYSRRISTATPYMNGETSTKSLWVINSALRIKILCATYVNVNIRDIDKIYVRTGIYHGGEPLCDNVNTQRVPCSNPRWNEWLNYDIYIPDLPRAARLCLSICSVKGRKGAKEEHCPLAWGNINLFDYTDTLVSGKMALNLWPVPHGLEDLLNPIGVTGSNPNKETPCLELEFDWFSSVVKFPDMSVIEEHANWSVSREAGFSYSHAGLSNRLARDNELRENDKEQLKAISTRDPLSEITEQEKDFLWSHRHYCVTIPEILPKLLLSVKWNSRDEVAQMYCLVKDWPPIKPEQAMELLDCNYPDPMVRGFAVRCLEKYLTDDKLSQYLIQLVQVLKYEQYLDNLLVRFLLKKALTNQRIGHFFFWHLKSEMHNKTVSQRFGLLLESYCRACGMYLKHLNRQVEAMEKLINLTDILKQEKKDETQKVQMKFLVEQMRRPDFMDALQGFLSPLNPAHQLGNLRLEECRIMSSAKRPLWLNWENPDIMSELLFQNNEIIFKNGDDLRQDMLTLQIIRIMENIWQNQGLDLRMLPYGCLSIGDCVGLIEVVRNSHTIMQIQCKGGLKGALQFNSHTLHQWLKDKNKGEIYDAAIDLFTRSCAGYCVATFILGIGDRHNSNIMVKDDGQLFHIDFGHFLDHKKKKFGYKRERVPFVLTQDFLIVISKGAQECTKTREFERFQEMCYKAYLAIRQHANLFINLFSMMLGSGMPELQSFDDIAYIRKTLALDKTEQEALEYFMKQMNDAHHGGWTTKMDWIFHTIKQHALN
Sequence of PI3K-alpha (P27986 whole entry partner, looked up, canonical isoform): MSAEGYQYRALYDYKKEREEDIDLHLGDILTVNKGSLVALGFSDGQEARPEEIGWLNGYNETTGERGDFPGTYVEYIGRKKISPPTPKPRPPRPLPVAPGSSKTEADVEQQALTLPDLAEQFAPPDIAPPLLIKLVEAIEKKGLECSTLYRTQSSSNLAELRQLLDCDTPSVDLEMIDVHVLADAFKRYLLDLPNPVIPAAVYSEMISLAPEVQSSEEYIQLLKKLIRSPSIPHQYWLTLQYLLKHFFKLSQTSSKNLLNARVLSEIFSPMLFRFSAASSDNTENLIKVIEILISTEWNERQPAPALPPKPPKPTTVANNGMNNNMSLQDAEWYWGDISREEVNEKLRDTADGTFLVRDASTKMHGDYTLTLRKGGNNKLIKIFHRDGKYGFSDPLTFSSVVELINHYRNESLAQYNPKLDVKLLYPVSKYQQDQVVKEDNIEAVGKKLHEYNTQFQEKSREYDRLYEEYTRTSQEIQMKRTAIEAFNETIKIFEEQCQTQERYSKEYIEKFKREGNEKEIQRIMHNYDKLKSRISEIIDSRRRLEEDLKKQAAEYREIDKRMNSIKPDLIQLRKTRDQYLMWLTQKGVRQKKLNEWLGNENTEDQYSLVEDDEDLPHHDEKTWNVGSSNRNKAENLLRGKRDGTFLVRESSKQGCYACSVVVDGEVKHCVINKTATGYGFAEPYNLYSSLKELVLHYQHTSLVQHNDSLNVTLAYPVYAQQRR

Q: How did the “Relative Selectivity versus PI3Kalpha” value turn out when `CCn1c(-c2cnc(C)nc2)nc2c(OC3CN(C(=O)OC(C)(C)C)CC3F)ncnc21` [Compound 1-44, [(3S,4S) and (3R,4R)]-tert-butyl 3-{[9-ethyl-8-(2-methylpyrimidin-5-yl)-9H-purin-6-yl]oxy}-4-fluoropyrrolidine-1-carboxylate] was run?
A: >10

Q: `CCC(=O)N1CC[C@H](Oc2ncnc3c2nc(-c2ccc4[nH]ncc4c2)n3C)C1` [Compound 3-5, (S)-1-(3-((8-(1H-indazol-5-yl)-9-methyl-9H-purin-6-yl)oxy)pyrrolidin-1-yl)propan-1-one] was tested. Which “Relative Selectivity versus PI3Kalpha” value did it give?
A: >10

Q: With `CCn1ncc(-c2nc3c(O[C@H]4CCN(c5ncnc6sc(C)c(C)c56)C4)ncnc3n2C)c1C` [Compound 7-12, 6-{[(3S)-1-(5,6-dimethylthieno[2,3-d]pyrimidin-4-yl)pyrrolidin-3-yl]oxy}-8-(1-ethyl-5-methyl-1H-pyrazol-4-yl)-9-methyl-9H-purine] as the molecule, how does the “Relative Selectivity versus PI3Kalpha” value read?
A: >10

Q: How did the “Relative Selectivity versus PI3Kalpha” value turn out when `CCn1c(-c2cnc(C)nc2)nc2c(O[C@H]3CCN(C(=O)C4CCOCC4)C3)ncnc21` [Compound 2-26, 9-ethyl-8-(2-methylpyrimidin-5-yl)-6-{[(3S)-1-(tetrahydro-2H-pyran-4-ylcarbonyl)pyrrolidin-3-yl]oxy}-9H-purine] was run?
A: >10

Q: With `CCn1ncc(-c2nc3c(O[C@H]4CCN(c5nccn6cnnc56)C4)ncnc3n2C)c1C` [Compound 7-6, 8-[(3S)-3-{[8-(1-ethyl-5-methyl-1H-pyrazol-4-yl)-9-methyl-9H-purin-6-yl]oxy}pyrrolidin-1-yl][1,2,4]triazolo[4,3-a]pyrazine] as the molecule, how does the “Relative Selectivity versus PI3Kalpha” value read?
A: >10

Q: `CCC(=O)N1CC[C@H](Oc2ncnc3c2nc(-c2cnn(CC)c2C)n3CC(F)F)C1` [Compound 3-21, 9-(2,2-difluoroethyl)-8-(1-ethyl-5-methyl-1H-pyrazol-4-yl)-6-{[(3S)-1-propanoylpyrrolidin-3-yl]oxy}-9H-purine] was tested. Which “Relative Selectivity versus PI3Kalpha” value did it give?
A: >10

Q: How did the “Relative Selectivity versus PI3Kalpha” value turn out when `CCn1ncc(-c2nc3c(O[C@H]4CCN(C(=O)c5c[nH]nn5)C4)ncnc3n2C)c1C` [Compound 2-40, 8-(1-ethyl-5-methyl-1H-pyrazol-4-yl)-9-methyl-6-{[(3S)-1-(1H-1,2,3-triazol-4-ylcarbonyl)pyrrolidin-3-yl]oxy}-9H-purine] was run?
A: 2

Q: `CCC(=O)N1CC[C@H](Oc2ncnc3c2nc(-c2cnn(C(C)(C)C)c2)n3C)C1` [Compound 3-16, 8-(1-tert-butyl-1H-pyrazol-4-yl)-9-methyl-6-{[(3S)-1-propanoylpyrrolidin-3-yl]oxy}-9H-purine] was tested. Which “Relative Selectivity versus PI3Kalpha” value did it give?
A: >10

Q: Which “Relative Selectivity versus PI3Kalpha” value does the source give for `Cn1c(-c2cnc(C(C)(C)C)s2)nc2c(O[C@H]3CCN(C(=O)OC(C)(C)C)C3)ncnc21` [Compound 1-39, tert-butyl (3S)-3-{[8-(2-tert-butyl-1,3-thiazol-5-yl)-9-methyl-9H-purin-6-yl]oxy}pyrrolidine-1-carboxylate] here?
A: >10

Q: With `CCC1CN(C(=O)OCc2ccccc2)CC1Oc1ncnc2c1nc(-c1cnc(C)nc1)n2CC` [Compound 1-45, [(3S,4R) and (3R,4S)]-benzyl 3-ethyl-4-{[9-ethyl-8-(2-methylpyrimidin-5-yl)-9H-purin-6-yl]oxy}pyrrolidine-1-carboxylate] as the molecule, how does the “Relative Selectivity versus PI3Kalpha” value read?
A: >10

Q: With `Cc1ncc(-c2nc3c(O[C@H]4CCN(C(=O)OC(C)(C)C)C4)ncnc3n2C)n1C` [Compound 1-17, tert-butyl (3S)-3-{[8-(1,2-dimethyl-1H-imidazol-5-yl)-9-methyl-9H-purin-6-yl]oxy}pyrrolidine-1-carboxylate] as the molecule, how does the “Relative Selectivity versus PI3Kalpha” value read?
A: >10

Q: For `CCn1ncc(-c2nc3c(O[C@H]4CCN(C(=O)OC)C4)ncnc3n2C)c1C` [Compound 1-36, methyl (3S)-3-{[8-(1-ethyl-5-methyl-1H-pyrazol-4-yl)-9-methyl-9H-purin-6-yl]oxy}pyrrolidine-1-carboxylate], which “Relative Selectivity versus PI3Kalpha” value is on record?
A: >10

Q: `CCn1c(-c2cnc(C)nc2C)nc2c(O[C@H]3CCN(C(=O)C4CC4)C3)ncnc21` [Compound 3-29, 6-{[(3S)-1-(cyclopropylcarbonyl)pyrrolidin-3-yl]oxy}-8-(2,4-dimethylpyrimidin-5-yl)-9-ethyl-9H-purine] was tested. Which “Relative Selectivity versus PI3Kalpha” value did it give?
A: >10

Q: With `CCn1ncc(-c2nc3c(O[C@H]4CCN(C(=O)C5(C)CCOCC5)C4)ncnc3n2C)c1C` [Compound 2-10, 8-(1-ethyl-5-methyl-1H-pyrazol-4-yl)-9-methyl-6-({(3S)-1-[(4-methyltetrahydro-2H-pyran-4-yl)carbonyl]pyrrolidin-3-yl}oxy)-9H-purine] as the molecule, how does the “Relative Selectivity versus PI3Kalpha” value read?
A: >10

Q: For `CCn1ncc(-c2nc3c(OC4CCN(C(=O)C5CCCCC5)C4)ncnc3n2C)c1C` (stereo not drawn) [Compound 2-4, 6-{[1-(cyclohexylcarbonyl)pyrrolidin-3-yl]oxy}-8-(1-ethyl-5-methyl-1H-pyrazol-4-yl)-9-methyl-9H-purine], which “Relative Selectivity versus PI3Kalpha” value is on record?
A: >10

Q: Which “Relative Selectivity versus PI3Kalpha” value does the source give for `CCn1c(N(C)CCOC)nc2c(O[C@H]3CCN(C(=O)OC(C)(C)C)C3)ncnc21` [Compound 13-6, tert-butyl (3S)-3-({9-ethyl-8-[(2-methoxyethyl)(methyl)amino]-9H-purin-6-yl}oxy)pyrrolidine-1-carboxylate] here?
A: >10

Q: `CCn1ncc(-c2nc3c(O[C@H]4CCN(C(=O)C(C)(C)C)C4)ncnc3n2C)c1C` [Compound 2-92, (S)-1-(3-((8-(1-ethyl-5-methyl-1H-pyrazol-4-yl)-9-methyl-9H-purin-6-yl)oxy)pyrrolidin-1-yl)-2,2-dimethylpropan-1-one] was tested. Which “Relative Selectivity versus PI3Kalpha” value did it give?
A: >10

Q: How did the “Relative Selectivity versus PI3Kalpha” value turn out when `CCn1ncc(-c2nc3c(O[C@H]4CCN(C(=O)c5cc(C)n(C)n5)C4)ncnc3n2C)c1C` [Compound 2-59, 6-({(3S)-1-[(1,5-dimethyl-1H-pyrazol-3-yl)carbonyl]pyrrolidin-3-yl}oxy)-8-(1-ethyl-5-methyl-1H-pyrazol-4-yl)-9-methyl-9H-purine] was run?
A: 2

Q: How did the “Relative Selectivity versus PI3Kalpha” value turn out when `CCn1c(-c2cnc(C)nc2)nc2c(OC3CCN(C(=O)N(C)c4ccccc4)CC3)ncnc21` [Compound 5-12, 4-{[9-ethyl-8-(2-methylpyrimidin-5-yl)-9H-purin-6-yl]oxy}-N-methyl-N-phenylpiperidine-1-carboxamide] was run?
A: >10

Q: Which “Relative Selectivity versus PI3Kalpha” value does the source give for `CCC(=O)N1CCC(Cc2ncnc3c2nc(-c2cnn(CC)c2C)n3C)C1` (stereo not drawn) [Compound 11-3, 1-(3-((8-(1-ethyl-5-methyl-1H-pyrazol-4-yl)-9-methyl-9H-purin-6-yl)methyl)pyrrolidin-1-yl)propan-1-one] here?
A: >10

Q: Which “Relative Selectivity versus PI3Kalpha” value does the source give for `CCn1ncc(-c2nc3c(O[C@H]4CCN(c5nncc6ccccc56)C4)ncnc3n2C)c1C` [Compound 7-8, 1-[(3S)-3-{[8-(1-ethyl-5-methyl-1H-pyrazol-4-yl)-9-methyl-9H-purin-6-yl]oxy}pyrrolidin-1-yl]phthalazine] here?
A: >10

Q: For `CCC(=O)N1CC[C@H](Oc2ncnc3c2nc(-c2cnn4c2CCCC4)n3C)C1` [Compound 3-40, 9-methyl-6-{[(3S)-1-propanoylpyrrolidin-3-yl]oxy}-8-(4,5,6,7-tetrahydropyrazolo[1,5-a]pyridin-3-yl)-9H-purine], which “Relative Selectivity versus PI3Kalpha” value is on record?
A: >10

Q: Which “Relative Selectivity versus PI3Kalpha” value does the source give for `CCn1ncc(-c2nc3c(O[C@H]4CCN(C(=O)CC#N)C4)ncnc3n2C)c1C` [Compound 2-15, 3-[(3S)-3-{[8-(1-ethyl-5-methyl-1H-pyrazol-4-yl)-9-methyl-9H-purin-6-yl]oxy}pyrrolidin-1-yl]-3-oxopropanenitrile] here?
A: >10

Q: Which “Relative Selectivity versus PI3Kalpha” value does the source give for `Cn1c(-c2cn[nH]c2)nc2c(O[C@H]3CCN(C(=O)OC(C)(C)C)C3)ncnc21` [Compound 1-19, tert-butyl (3S)-3-{[9-methyl-8-(1H-pyrazol-4-yl)-9H-purin-6-yl]oxy}pyrrolidine-1-carboxylate] here?
A: >10

Q: How did the “Relative Selectivity versus PI3Kalpha” value turn out when `CCn1c(-c2cnc(C)nc2)nc2c(OC3CN(C(=O)C4CC4)CC3F)ncnc21` (single isomer, unassigned) [Compound 2-138, 6-{[1-(cyclopropylcarbonyl)-(3S,4S)- or (3R,4R)-4-fluoropyrrolidin-3-yl]oxy}-9-ethyl-8-(2-methylpyrimidin-5-yl)-9H-purine] was run?
A: >10

Q: With `CCn1c(-c2cnc(C)nc2)nc2c(O[C@H]3CCN(C(=O)C4CC4)[C@@H]3C)ncnc21` [Compound 2-98, 6-{[(2R,3S)-1-(cyclopropylcarbonyl)-2-methylpyrrolidin-3-yl]oxy}-9-ethyl-8-(2-methylpyrimidin-5-yl)-9H-purine] as the molecule, how does the “Relative Selectivity versus PI3Kalpha” value read?
A: >10

Q: `CCn1ncc(-c2nc3c(O[C@H]4CCN(C(=O)c5ocnc5C)C4)ncnc3n2C)c1C` [Compound 2-71, 8-(1-ethyl-5-methyl-1H-pyrazol-4-yl)-9-methyl-6-({(3S)-1-[(4-methyl-1,3-oxazol-5-yl)carbonyl]pyrrolidin-3-yl}oxy)-9H-purine] was tested. Which “Relative Selectivity versus PI3Kalpha” value did it give?
A: >10

Q: How did the “Relative Selectivity versus PI3Kalpha” value turn out when `CCn1c(-c2cnc(C)nc2)nc2c(O[C@H]3CCN(C(=O)N4CC(F)C4)C3)ncnc21` [Compound 5-27, 9-ethyl-6-({(3S)-1-[(3-fluoroazetidin-1-yl)carbonyl]pyrrolidin-3-yl}oxy)-8-(2-methylpyrimidin-5-yl)-9H-purine] was run?
A: >10

Q: How did the “Relative Selectivity versus PI3Kalpha” value turn out when `CCn1ncc(-c2nc3c(O[C@H]4CCN(C(=O)C5CCOCC5)C4)ncnc3n2CC)c1C` [Compound 3-61, (S)-(3-((9-ethyl-8-(1-ethyl-5-methyl-1H-pyrazol-4-yl)-9H-purin-6-yl)oxy)pyrrolidin-1-yl)(tetrahydro-2H-pyran-4-yl)methanone] was run?
A: >10

Q: For `CCn1ncc(-c2nc3c(O[C@H]4CCN(C(=O)c5ncoc5C)C4)ncnc3n2C)c1C` [Compound 2-57, 8-(1-ethyl-5-methyl-1H-pyrazol-4-yl)-9-methyl-6-({(3S)-1-[(5-methyl-1,3-oxazol-4-yl)carbonyl]pyrrolidin-3-yl}oxy)-9H-purine], which “Relative Selectivity versus PI3Kalpha” value is on record?
A: >10

From patent US9730940B2, “Purine inhibitors of human phosphatidylinositol 3-kinase delta” (priority 2012, dated 2017)
